How the values were obtained:
[1] = tested on: human pancreatic adenocarcinomas; assay type: in vivo; conditions: for % of CD44+c-Met+ cancer stem cells in tumor: flow cytometry after 4 weeks treatment; for tumor growth during the 4 week period of treatment: subcutaneous tumor volume, weekly, FIG. 8B; for effect on cancer stem cell population (in words): CD44+c-Met+, flow cytometry; for tumor growth following cessation of treatment: versus untreated tumors
Description: Samples of human pancreatic adenocarcinomas were obtained. Within 60 minutes following surgical resection, tumors were suspended in sterile RPMI medium 1640 (available from Sigma-Aldrich®), mechanically dissociated using scissors, then minced with a sterile scalpel blade over ice to yield 2×2 mm pieces. The tumor pieces were washed with serum-free PBS before implantation. Eight-week-old male NOD/SCID mice were anesthetized using an i.p. injection of 100 mg/kg ketamine and 5 mg/kg xylazine. NOD/SCID mice are publically available from Charles River Laboratories International in Wilmington, Mass. A 5-mm incision was then made in the skin overlying the mid-abdomen, and three pieces of tumor were implanted subcutaneously. The skin incision was closed with absorbable suture. The mice were monitored weekly for tumor growth for 16 to 20 weeks. After establishment of xenografts, studies were performed on passage 2 tumors.
Xenograft tumors or primary human tumors were cut up into small pieces with scissors, and then minced completely using sterile scalpel blades. To obtain single cell suspensions, the resultant minced tumor pieces were mixed with ultra-pure collagenase IV (Worthington Biochemical, Lakewood, N.J.) in medium 199 (200 units of collagenase per ml) and allowed to incubate at 37° C. for 1 to 1.5 hours for enzymatic dissociation. The specimens were further mechanically dissociated every 10 minutes by pipetting with a 10-ml pipette. At the end of the incubation, cells were filtered through a 40-μm nylon mesh, washed with HBSS/20% FBS, and then washed twice with HBSS.
Sorted cells or bulk pancreatic tumor cells were washed with serum free HBSS and suspended in serum free-RPMI1640/Matrigel mixture (1:1 volume), followed by injection into the subcutaneous tissue of the right and left mid-abdominal area using a 27-gauge needle. In separate experiments, mice were anesthetized with an i.p. injection of 100 mg/kg ketamine and 5 mg/kg xylazine, and a small median laparotomy was performed. Five thousand sorted cells or 1-5×10^5 bulk tumor cells resuspended in PBS/Matrigel mixture (1:1) in a volume of 100 µl were injected into the tail of the pancreas using a 30-gauge needle. PBS stands for phosphate buffered saline, which can be obtained from Thermo Fisher Scientific Inc. Six mice were inoculated per test group. Animals then underwent autopsy, and tumor growth was accessed after 4 to 8 weeks. Tissues were fixed in formaldehyde and were examined histologically or dissociated to generate single cell suspensions for further study.
[…]. CD44 and c-Met are both markers on pancreatic cancer stem cells.
. Subcutaneous tumor volume was assessed weekly. […] Half of the mice in each group were euthanized 4 weeks after initiation of treatment, and the tumors were dissociated and examined using flow cytometry to determine the percentage of c-Met+/CD44+ cancer stem cells within the tumors. The remaining mice were kept for an additional 8 weeks following cessation of treatment, and tumor volume was measured weekly. […]. […]. […]
Tumor size was measured weekly. Three mice of each group were euthanized after 4 weeks treatment for analysis of cancer stem cells, and the other mice were followed to monitor tumor growth for an additional 8 weeks. […] In FIG. 8B, the average tumor size±SEM from three separate tumors is presented. FIG. 8C depicts a graph of CSC percentage in different treatment groups. The percentage of the c-Met+/CD44+ tumorigenic cancer cell population in the total cancer cell population is indicated for each treatment.

[2] = tested on: primary human pancreatic cancer; assay: Orthotopic implants of primary human pancreatic cancer in the pancreatic tail of NOD/SCID mice: bioluminescent tumor growth and cancer stem cells; assay type: in vivo; conditions: for effect on cancer stem cell population (in words): CD44+CD24+ESA+; for effect on cancer stem cell population (in words) / % of CD44+CD24+ESA+ cancer stem cells in tumor: flow cytometry; for % of CD44+CD24+ESA+ cancer stem cells in tumor: table title says subcutaneous xenograft tumor, text cites it for orthotopic implants; for tumor growth during the 4 week treatment: orthotopic tumors, bioluminescent imaging, versus controls
Description: Sorted cells or bulk pancreatic tumor cells were washed with serum free HBSS and suspended in serum free-RPMI1640/Matrigel mixture (1:1 volume), followed by injection into the subcutaneous tissue of the right and left mid-abdominal area using a 27-gauge needle. In separate experiments, mice were anesthetized with an i.p. injection of 100 mg/kg ketamine and 5 mg/kg xylazine, and a small median laparotomy was performed. Five thousand sorted cells or 1-5×10^5 bulk tumor cells resuspended in PBS/Matrigel mixture (1:1) in a volume of 100 µl were injected into the tail of the pancreas using a 30-gauge needle. […] Animals then underwent autopsy, and tumor growth was accessed after 4 to 8 weeks.
To validate the findings with bioluminescent imaging, mice were euthanized with carbon dioxide inhalation, and autopsies were performed to assess the extent of primary tumor growth and metastasis.
The same three pancreatic cancers used for the subcutaneous tumor implantation experiments were infected with a lentivirus expressing luciferase to allow imaging in real time, and cells were injected into the pancreatic tail.
Tumor size and volume were measured weekly using Xenogen IVIS 200 imaging system throughout the experiment period.

[3] = Compound 1 30 mg/kg/day, GEM 100 mg/kg/twice weekly

| SMILES | % of CD44+c-Met+ cancer stem cells in tumor [1, 3] [%] | tumor growth during the 4 week period of treatment [1] | decrease in CD44+c-Met+ cancer stem cell population ([1]; subcutaneous tumors, 4 weeks treatment, Compound 1 30 mg/kg/day, GEM 100 mg/kg/twice weekly) [%] | effect on cancer stem cell population (in words) ([1]; subcutaneous tumors) | tumor growth following cessation of treatment ([1]; subcutaneous tumors) | effect on cancer stem cell population (in words) [2] | % of CD44+CD24+ESA+ cancer stem cells in tumor [2] [%] | tumor growth during the 4 week treatment [2] | increase of the c-Met+CD44+ population ([1]; subcutaneous tumors, 4 weeks treatment, GEM 100 mg/kg/twice weekly) [%] |
| --- | --- | --- | --- | --- | --- | --- | --- | --- | --- |
| COc1cc2nccc(Oc3ccc(NC(=O)C4(C(=O)Nc5ccc(F)cc5)CC4)cc3)c2cc1OC [Compound 1, N-(4-{[6,7-bis(methyloxy)quinolin-4-yl]oxy}phenyl)-N′-(4-fluorophenyl)cyclopropane-1,1-dicarboxamide] | 0.55 | significantly inhibited tumor growth | 83±3 | significantly depleted | grew more slowly than the untreated tumors | significantly depleted | 0.61 | prevented tumor growth |  |
| Nc1ccn([C@@H]2O[C@H](CO)[C@@H](O)C2(F)F)c(=O)n1 [GEM, gemcitabine] | 4.34 | significantly inhibited tumor growth |  | increases in the total number of pancreatic cancer stem cells | grew more slowly than the untreated tumors | increases in the total number of pancreatic cancer stem cells | 4.3 | prevented tumor growth | 48±20 |
